Experimental findings from US7964631B2, “Fused tricyclic compounds as inhibitors of tumor necrosis factor-α” (Piramal Life Sciences Limited, priority 2004, dated 2011) are described below.

The subject of series [1] is TNF-α. Kind of series: LPS-induced TNF-α production in peripheral blood mononuclear cells (secondary screening). In kind it is cell-based. The note with it: 4.5 h, TNF-α production in PBMC, LPS 1 μg/ml, ELISA or L929 bioassay. Here is the method: (§1) TNF-α production by LPS in peripheral blood mononuclear cells (PBMC) was measured according to the method described by Henry et al (J. Bioorg. Med. Chem. Lett., 8: 3335-3340, 1998). Briefly, blood was collected from healthy donors into Potassium EDTA vacutainer tubes (Vacutest Plast/Becton Dickinson). PBMC were isolated using gradient centrifugation in Ficoll-Paque solution (Pharmacia). Isolated PBMC were suspended in RPMI 1640 culture medium (Gibco BRL, Pasley, UK) containing 10% fetal bovine serum (FBS) (Hyclone, Utah, USA), 100 U/ml penicillin (Sigma Chemical Co. St Louis, Mo.) and 100 μg/ml streptomycin (Sigma Chemical Co. St Louis, Mo.). The cell concentration was adjusted to 1×10^6 cells/ml. The viability as determined by trypan blue dye exclusion was uniformly ≧98%. The cell suspension (100 μl) was added to the wells of a 96-well culture plate. Following cell plating, 79 μl of the culture medium and 1 μl of eight different concentrations of the test compounds (final concentration 0.03, 0.1, 0.3, 1, 3, 10, 30, 100 μM) dissolved in DMSO (dimethylsulfoxide, Sigma, Mo., USA) were added to the cells. The final concentration of DMSO was adjusted to 0.5%. The appropriate DMSO concentration was used as control. Rolipram (30 μM) was used as a standard compound. The plates were incubated for 30 min at 37° C. in an atmosphere of 5% CO2. Finally, 20 μl (10 μg/ml) per well of LPS, (Escherchia coli 0127:B8, Sigma Chemical Co., St. Louis, Mo.) was added, for a final concentration of 1 μg/ml. The plates were incubated at 37° C. for 4.5 h in an atmosphere of 5% CO2. To determine the cytotoxicity of the test compounds, the cell viability was assessed using MTS (3-(4,5-dimethylthiazol-2-yl)-5-(3-carboxymethoxyphenyl)-2-(4-sulfonyl)-2H-tetrazolium) reagent (Promega) after 4.5 h of incubation. Supernatants were harvested and assayed for TNF-α by ELISA as described by the manufacturer (R&D Systems, MN, BD Biosciences Pharmingen) or by cytotoxicity bioassay in L929 cells. The 50% inhibitory concentration (IC50) values were calculated by a nonlinear regression method using GraphPad software (Prism 3.03)
In general terms: In an ELISA, binding on a coated surface is turned into a signal by an enzyme label.

The subject of series [2] is peripheral blood mononuclear cells (PBMC). Kind of series: Cytotoxicity of test compounds in PBMC, cell viability by MTS reagent. It counts as cell-based, human. The procedure:
as §1

For series [3], the system named is TNF-α. The series can be described thus: LPS-induced TNF-α release in BALB/c mice. It counts as in vivo. Conditions: Mus musculus, LPS 1 mg/kg i.p. 1 h after dosing, plasma TNF-α 1.5 h after LPS, read-out: % inhibition (Mean ± SE*); for inhibition in vivo at 100 mg/kg: 100 mg/kg po; for inhibition in vivo at 30 mg/kg: 30 mg/kg po. The procedure:
The protocol described by Fukuda T. et al (Eur. J. Pharmacol., 391: 317-320, 2000) was followed. BALB/c mice were divided into groups of five to ten each. The test compound, suspended in Tween 80-0.5% carboxy methylcellulose (CMC), with a few drops of Tween 80 as wetting agent if necessary, was administered orally (p.o.) to the mice. One hour later, LPS dissolved in sterile, pyrogen-free saline was administered i.p. at the dose of 1 mg/kg. The negative control group received saline as an i.p injection, while all other groups received LPS. Rolipram (30 mg/kg) was used as the standard drug. One and a half hours later, blood was collected in heparin. Plasma was separated by centrifugation at 13000 rpm (Heraeus Biofuge Pico Centrifuge) at room temperature, aliquoted and stored at −70° C. until analysis.
TNF-α levels in the blood samples were assayed using ELISA and % inhibition of TNF-α release compared to the control group was calculated.

Series [4] relates to TNF-α. The series can be described thus: Whole blood cell culture assay: LPS-induced TNF-α release (primary screening). The note with it: Homo sapiens, Whole blood cell; test compound 1 μM; diluted whole blood of healthy donors; LPS 1 μg/ml, 4.5 h; vs DMSO control. It counts as cell-based, human. Here is the method: TNF-α production by lipopolysaccharide (LPS) in whole blood was measured according to the method described by Wilson et al (J. Immunol. Methods, 139: 233-240, 1991). Briefly, blood was collected from healthy donors into potassium EDTA vacutainer tubes (Vacutest Plast/Becton Dickinson) and diluted with RPMI 1640 culture medium (Gibco BRL, Pasley, UK) containing 100 U/ml penicillin and 100 μg/ml streptomycin, (100× solution, Sigma Chemical Co. St Louis, Mo.) with no added serum. The white blood cell count was adjusted to 1×10^6 cells/ml and 100 μl/well of the diluted blood was transferred into 96-well culture plates. Following cell plating, 79 μl of culture medium and 1 μl of the test compounds (final concentration 1 μM) dissolved in DMSO (dimethylsulfoxide, Sigma, Mo., USA) was added to the cells. The final concentration of DMSO was adjusted to 0.5%. 1 μl of vehicle (0.5% DMSO) was used as control. Rolipram (100 μM) was used as a standard compound. The plates were incubated for 30 min at 37° C. in an atmosphere of 5% CO2. Finally, 20 μl (10 μg/ml) per well of LPS (Escherchia coli 0127:B8, Sigma Chemical Co., St. Louis, Mo.) was added, for a final concentration of 1 μg/ml. Plates were incubated at 37° C. for 4.5 h in an atmosphere of 5% CO2. Supernatants were harvested and assayed for TNF-α by ELISA as described by the manufacturer (R&D Systems, MN) or by cytotoxicity bioassay in L929 cells. Percent inhibition of TNF-α release in comparison to the control was calculated.

Structures can show the parent of a compound that is named as a salt.

Turning to `COC(=O)c1cc(C)c2c(c1)S(=O)(=O)Cc1cc(N)cc(Cl)c1O2` [Example 1, 2-Amino-4-chloro-6-methyl-10,10-dioxo-10,11-dihydro-5-oxa-10lambda*6*-thia-dibenzo[a,d]cycloheptene-8-carboxylic acid methyl ester], the melting point (commonly the temperature of the solid-liquid transition) is 258 to 260 °C. The IC50 (as a rule, the concentration needed to halve the response being measured) in series [1] was found to be 8.6 µM. Also, the “% toxicity (10 μM), 5 h” value in series [2] stood at 12%. The inhibition in vivo at 10 mg/kg in series [3] (10 mg/kg po) turned out to be 64.9 ± 3.97%.
Consider `Cc1cc(C(=O)O)cc2c1Oc1c(Cl)cc(N)cc1CS2(=O)=O` [Example 3, 2-Amino-4-chloro-6-methyl-10,10-dioxo-10,11-dihydro-5-oxa-10lambda*6*-thia-dibenzo[a,d]cycloheptene-8-carboxylic acid sodium salt], for which, in series [3], the inhibition in vivo at 100 mg/kg was 40.7 ± 12.7%.
Still for that read-out and setting: to `Cc1cc(C(=O)O)cc2c1Oc1c(Cl)cc(NC=O)cc1CS2(=O)=O` [Example 7, 4-Chloro-2-formylamino-6-methyl-10,10-dioxo-10,11-dihydro-5-oxa-10lambda*6*-thia-dibenzo[a,d]cycloheptene-8-carboxylic acid] belongs 55.8 ± 9.24%.
Regarding `COC(=O)c1cc(C)c2c(c1)S(=O)(=O)Cc1cc(NC=O)cc(Cl)c1O2` [Example 9, 4-Chloro-2-formylamino-6-methyl-10,10-dioxo-10,11-dihydro-5-oxa-10lambda*6*-thia-dibenzo[a,d]cycloheptene-8-carboxylic acid methyl ester], the melting point is 258 to 262 °C (dec.). The inhibition (usually how much of the control response was suppressed) at 1 µM in series [4] is 31%. For the same compound, the IC50 in series [1] stood at 2.6 µM. In addition, the “% toxicity (10 μM), 5 h” value in series [2] worked out at 09%.
In turn, `Cc1cc(C(=O)OC(C)C)cc2c1Oc1c(Cl)cc(NC=O)cc1CS2(=O)=O` [Example 11, 4-Chloro-2-formylamino-6-methyl-10,10-dioxo-10,11-dihydro-5-oxa-10lambda*6*-thia-dibenzo[a,d]cycloheptene-8-carboxylic acid isopropyl ester] showed a melting point of 212 to 215 °C. Further, in series [4], the inhibition at 1 µM is 51%. The compound also came in with a concentration for half-maximal inhibition (IC50) in series [1] of 21 µM. Further, in series [2], the “% toxicity (10 μM), 5 h” value amounted to 25%. In addition, the inhibition in vivo at 100 mg/kg in series [3] came out at 77.9 ± 9.85%.
As for `Cc1cc(C(=O)O)cc2c1Oc1c(Cl)cc(N3CCNCC3)cc1CS2(=O)=O` [Example 18, 4-Chloro-6-methyl-10,10-dioxo-2-piperazin-1-yl-10,11-dihydro-5-oxa-10lambda*6*-thia-dibenzo[a,d]cycloheptene-8-carboxylic acid], the inhibition in vivo at 100 mg/kg in series [3] came to 22.7 ± 8.47%.
On to `COC(=O)c1cc(C)c2c(c1)S(=O)(=O)Cc1cc(N3CCN(C=O)CC3)cc(Cl)c1O2` [Example 20, 4-Chloro-2-(4-formyl-piperazin-1-yl)-6-methyl-10,10-dioxo-10,11-dihydro-5-oxa-10lambda*6*-thia-dibenzo[a,d]cycloheptene-8-carboxylic acid methyl ester], for which 1.1 µM corresponded to half-maximal inhibition in series [1] (IC50). Also, the “% toxicity (10 μM), 5 h” value in series [2] was determined as 24%. Further, the inhibition in vivo at 30 mg/kg in series [3] came to 27.9 ± 17.5%.
In the same order, the values of `COC(=O)c1cc(C)c2c(c1)S(=O)(=O)Cc1cc(N3CCN(C(C)=O)CC3)cc(Cl)c1O2` [Example 21, 2-(4-Acetyl-piperazin-1-yl)-4-chloro-6-methyl-10,10-dioxo-10,11-dihydro-5-oxa-10lambda*6*-thia-dibenzo[a,d]cycloheptene-8-carboxylic acid methyl ester] are 4 µM, 44% and 54.6 ± 11.7%.
For `COC(=O)c1cc(C)c2c(c1)S(=O)(=O)Cc1cc(N3CCN(CCO)CC3)cc(Cl)c1O2` [Example 22, 4-Chloro-2-[4-(2-hydroxy-ethyl)-piperazin-1-yl]-6-methyl-10,10-dioxo-10,11-dihydro-5-oxa-10lambda*6*-thia-dibenzo[a,d]cycloheptene-8-carboxylic acid methyl ester], half-maximal inhibition in series [1] (IC50) required 0.88 µM. Also, the “% toxicity (10 μM), 5 h” value in series [2] was determined as 16%. Besides, the inhibition in vivo at 100 mg/kg in series [3] worked out at 57.7 ± 5.66%.
With `COC(=O)c1cc(C)c2c(c1)S(=O)(=O)Cc1cc(N3CCN(S(C)(=O)=O)CC3)cc(Cl)c1O2` [Example 25, 4-Chloro-2-(4-methanesulfonyl-piperazin-1-yl)-6-methyl-10,10-dioxo-10,11-dihydro-5-oxa-10lambda*6*-thia-dibenzo[a,d]cycloheptene-8-carboxylic acid methyl ester], the IC50 in series [1] is 0.6 µM. The “% toxicity (10 μM), 5 h” value in series [2] was determined as 18%. Besides, the inhibition in vivo at 30 mg/kg in series [3] came to 33.6 ± 16.5%.
`Cc1cc(C(=O)OC(C)C)cc2c1Oc1c(Cl)cc(N3CCNCC3)cc1CS2(=O)=O.Cl` [Example 28, 4-Chloro-6-methyl-10,10-dioxo-2-piperazin-1-yl-10,11-dihydro-5-oxa-10lambda*6*-thia-dibenzo[a,d]cycloheptene-8-carboxylic acid isopropyl ester hydrochloride] showed a melting point of 262 to 264 °C. This compound had an inhibition at 1 µM in series [4] of 70%. Also, in series [1], the IC50 was found to be 10.5 µM. For the same compound, in series [2], the “% toxicity (10 μM), 5 h” value was determined as 15%.
In the same order, the values of `COC(=O)c1cc(C)c2c(c1)S(=O)(=O)Cc1ccc(N3CCNCC3)c(Cl)c1O2.Cl` [Example 32, 4-Chloro-6-methyl-10,10-dioxo-3-piperazin-1-yl-10,11-dihydro-5-oxa-10lambda*6*-thia-dibenzo[a,d]cycloheptene-8-carboxylic acid methyl ester hydrochloride] are 235 to 237 °C, 96%, 0.16 µM and 27%.
For `COC(=O)Cc1cc(C)c2c(c1)S(=O)(=O)Cc1cc(N3CCNCC3)cc(Cl)c1O2.Cl` [Example 33, (4-Chloro-6-methyl-10,10-dioxo-2-piperazine-1-yl-10,11-dihydro-5-oxa-10lambda*6*-thia-dibenzo[a,d]cyclohepten-8-yl)-acetic acid methyl ester hydrochloride], in that order: 280 °C (dec.), 95%, 0.2 µM and 29%.
